According to patent publication US20220133767A1, “TARGETING MICRORNAS TO OVERCOME DRUG TOLERANCE AND RESISTANCE” (Beth Israel Deaconess Medical Center, Inc., priority 2019, published 2022):
Entries after “also recorded” stand apart in the source; their conditions may differ.

Key:
[1] = test system: H1975 organoids; experiment: Fractional viability of H1975 organoids treated with osimertinib, LNA miR-147b inhibitor, DMOG, R59949 or combinations for 14 days; assay type: cell-based, human
Procedure: (§1) For 3D organoid formation, single-cell suspensions (2000 cells/well/20 μl) were co-plated with geltrex (25 μl) in 96-well non-treated clear plates (Corning, cat #08-772-53). The plate was incubated for 20 minutes at 37° C. followed by adding 100 μl complete growth media. The complete growth media was advanced DMEM/F12 with glutamax (1×), HEPES (1×), 1.25 mM N-Acetylcysteine, 10 mM Nicotinamide, 10 μM Forskolin, B27 (1×), 5 ng/ml Noggin, 100 ng/ml FGF10, 20 ng/ml FGF2, 50 ng/ml EGF, 10 ng/ml PDGFA, 10 ng/ml FGF7, 1% penicillin-streptomycin, and 10 μM Y-27632. Y-27632 was used only for the initial three days because Y27632 is a rock inhibitor preventing apoptosis of single cells (Watanabe et al., Nat. Biotechnol. 25(6):681-686, 2007). PDGFA and FGF7 were not used until day 7 in organoid cultures because they are important for alveolarization during late lung development (Padela et al., Pediatr. Res. 63(3):232-8, 2008; Bostrom et al., Cell 85(6):863-873, 1996). FGF10 is essential for maintenance of lung progenitor cells and branching morphogenesis as well as tissue homeostasis in the adult lung (Sekine et al., Nat. Genet. 21(1):138-141, 1999). […] The organoids were photographed with a microscope (Evos Fla., Life Technology) and their size was measured by ImageJ. […]

[2] = test system: pseudohypoxia genes in H1975 cells; experiment: qRT-PCR analysis of hypoxia (pseudohypoxia) gene expression; assay type: cell-based, human
Procedure: Transfection by LNAs in vitro. Tumor cells were plated at 2,000 cells in complete growth medium in a 96 well plate to reach 50-60% confluence. 0˜120 nM of fluorescein-conjugated LNA anti-miR-147b (Sequence: […]; SEQ ID NO: 890) (Cat #4100977-011) or negative control (Sequence: TAACACGTCTATACGCCCA; SEQ ID NO: 891) (Cat #199006-011, Exiqon) with PureFection (System Biosciences) were applied for transfection. The transfected cells were harvested after culturing for 48 and 72 hours.

[3] = test system: H1975 cells; experiment: Cell viability of osimertinib-treated H1975 cells co-incubated with SDH inhibitor dimethyl malonate; assay type: cell-based, human; conditions: 100 nM osimertinib co-incubated with 0, 0.03, 0.1 mM DMM for 3 days
Procedure: (§2) Compound Treatment. Cell viability experiments were performed in 96-well format using opaque white plates (Corning). For 2D monolayer cell cultures and organoids, cells were plated into 96-well plates with 100-2000 cells per well in three-four replicates on day 0. Twenty-four hours after seeding, cells or organoids were exposed to compounds at indicated concentrations for 72 hours. Cellular ATP levels (as a surrogate for viability) were measured using CeliTiter-Glo (Cat #G7570, Promega) or CeliTiter-Glo 3D (Cat #G9681, Promega). For co-treatment experiments, spent medium was removed 24 hours after cell seeding and replaced with medium containing a single concentration of the modulator of interest (for example, osimertinib).

[4] = test system: PDX_LU_10 organoids; experiment: Pretreatment response on lung PDX organoids (organoid size); assay type: cell-based, human
Excerpt: Patient-derived Xenograft Tumor Specimens. Tumor samples from patient-derived xenografts (PDXs) were generated at The Jackson Laboratory and the Yale Cancer Center by subcutaneous implantation of previously passaged tumors in up to 5 female NSG mice. When tumor samples reached 1000 mm^3 they were shipped to the laboratory in frozen media of DMEM with 90% FBS and 10% DMSO in dry ice. Samples were washed with cold phosphate buffer saline (PBS) with antibiotics (Sigma-Aldrich, St. Louis, Mo.) three times, chopped with a sterile blade, and incubated in 0.001% deoxyribonuclease (DNase) (Sigma-Aldrich, St. Louis, Mo.), 1 mg/ml collagenase/dispase (Roche, Indianapolis, Ind.), 200 U/ml penicillin, 200 μg/ml streptomycin, 0.5 μg/ml amphotericin B (2% antibiotics, Sigma) in DMEM/F12 medium (GIBCO, Grandlsland, N.Y.) at 37° C. water bath for 3 hours with intermittent shaking. After incubation, the suspensions were repeatedly triturated, passed through 70 μm and 40 μm cell-strainers (BD Falcon, San Jose, Calif.), and centrifuged at 122 g for 5 minutes at 4° C. Cells were resuspended in red blood cell lysis buffer (eBioscience, San Diego, Calif.) for 4 minutes at room temperature with intermittent shaking, before resuspension in serum-free medium. After lysis, cell viability was evaluated by trypan blue dye exclusion.
(§3) The plate was incubated for 20 minutes at 37° C. followed by adding 100 μl complete growth media. […] The media was changed every three days in 24 days. The organoids were photographed with a microscope (Evos Fla., Life Technology) and their size was measured by ImageJ.
Transfection by LNAs in vitro. Tumor cells were plated at 2,000 cells in complete growth medium in a 96 well plate to reach 50-60% confluence. […] The transfected cells were harvested after culturing for 48 and 72 hours.

[5] = test system: H1975 organoids; experiment: Osimertinib treatment response (cell viability) on H1975 organoids transfected with LNA miR-147b inhibitor; assay type: cell-based, human; conditions: 120 nM LNA miR-147b inhibitor
Procedure: as §1

[6] = test system: PC9 cells; experiment: Single cell clonogenicity / frequency of drug-tolerant clones; conditions: 0.1, 0.4 and 2 μM gefitinib (all three groups), 14 days, vehicle 8.3%±0.7%
[7] = test system: HCC827 cells
Procedure: as §2
(§4) Lentiviral-mediated miRNA and VHL Overexpression or Knockdown Infection.

[8] = test system: H1975 cells; experiment: Cell viability of H1975 cells with HIF1A or EPAS1 knockdown or HIF1A A588T treated with osimertinib; assay type: cell-based, human; conditions: 3 days
Procedure: HIF1A and EPAS1 shRNAs and cDNA transfection. H1975 cells were seeded in a 6-well plate at 100,000 cells per well one day prior to transfection. A mixture of 2.5 μg pGFP-C-shLenti vector targeting HIF1A (OrGene, Cat #320380), EPAS1 (OriGene, Cat #TL315484), scrambled negative control (Cat #TR30021), lentiviral vector targeting HIF1A mutantA588T (OrGene, Cat #RC402571), control vector and 7.5 μL of PureFection (System Biosciences, Cat #LV750A-1) were used for transfection. The transfected cells were selected and maintained in 0.5 μg/ml puromycin (for shRNAs) or 600 μg/ml neomycin (for HIF1A A5887) in DMEM containing with 10% FBS for 9 days. Then the stable cells were passaged into 96-well plate at 3,000 cells per well followed by treatment with 100 nM osimertinib for 3 days. hsa-HIF1A targeting sequences: shRNA 1: […] (SEQ ID NO: 892), shRNA 2: […] (SEQ ID NO: 893), shRNA 3: […] (SEQ ID NO: 894), shRNA 4: […] (SEQ ID NO: 895). hsa-EPAS1 targeting sequences: shRNA 1: […] (SEQ ID NO: 896), shRNA 2: […] (SEQ ID NO: 897), shRNA 3: […] (SEQ ID NO: 898), shRNA 4: […] (SEQ ID NO: 899).

[9] = test system: H1975 organoids; experiment: Organoid number after lentiviral miR-147b inhibition and/or osimertinib; assay type: cell-based, human
Procedure: as §3, §4

COC(=O)CNC(=O)C(=O)OC [DMOG, dimethyloxaloylglycine]
osimertinib-tolerance (fractional viability) on co-treatment with DMOG ([1]; osimertinib 25 nM, LNA-anti147b 90 nM, DMOG 10 μM): rescued reduced osimertinib-tolerance | pseudohypoxia gene levels reduced by miR-147b knockdown, on co-treatment with DMOG ([2]; H1975, 90 nM LNA miR-147b inhibitor + 10 μM DMOG): rescued significantly | expression of pseudohypoxia genes ([2]; H1975, single dose of 10 μM DMOG vs vehicle): upregulated expression

COC(=O)CC(=O)OC [DMM, dimethyl malonate]
drug-tolerance to osimertinib (cell viability) [3]: promotes drug-tolerance; also recorded: effectively rescued

LNA miR-147b inhibitor: fluorescein-conjugated LNA anti-miR-147b, sequence AGCAGAAGCATTTCCGCACA (SEQ ID NO: 890), Cat #4100977-011 (LNA-modified, fluorescein conjugated, pattern and position not given here)
decrease of osimertinib-tolerance compared with control cells ([4]; 90 nM LNA miR-147b inhibitor on day 0 and day 2 + 25 nM osimertinib, day 8): 80% | PDX organoids volume increase, as % of that in control cells with the single agent of osimertinib ([4]; LNA miR-147b inhibitor pretreatment + osimertinib, day 8 to day 14): no more than 10% | decrease of IC50 for osimertinib / increase of sensitivity of drug-tolerant organoids to osimertinib, compared to scrambled control [5]: 30 fold | osimertinib-tolerance (fractional viability) ([1]; osimertinib 25 nM + LNA-anti147b 90 nM): reduced osimertinib-tolerance | expression levels of pseudohypoxia genes ([2]; H1975 cells, 90 nM LNA miR-147b inhibitor, three days, vs scrambled control): reduced expression levels

O=c1c2ccccc2[nH]c(=S)n1CCN1CCC(=C(c2ccc(F)cc2)c2ccc(F)cc2)CC1 [R59949]
pseudohypoxia gene levels reduced by LNA-miR-147b inhibitor, on co-treatment with R59949 ([2]; H1975 cells, 90 nM LNA miR-147b inhibitor + 30 μM R59949, three days): further inhibited | expression of pseudohypoxia genes ([2]; H1975 cells, single dose of 30 μM R59949 vs vehicle): downregulation

COc1cc2ncnc(Nc3ccc(F)c(Cl)c3)c2cc1OCCCN1CCOCC1 [gefitinib]
frequency of colony formation [6]: 3.6%±0.3

C=CC(=O)Nc1cc(Nc2nccc(-c3cn(C)c4ccccc34)n2)c(OC)cc1N(C)CCN(C)C [osimertinib]
enhancement of drug-tolerance at the half-maximum inhibitory concentration (IC50) by enforced overexpression of miR-147b [7]: 60 fold | decrease of size of the tumor organoids ([4]; 25 nM osimertinib on day 1 and 4, day 6): 50% | increase (recovery) of organoid size ([4]; 25 nM osimertinib on day 1 and 4, day 14): 40% | increase of drug-tolerance towards osimertinib upon overexpression of HIF1A A588T ([8]; 100 nM osimertinib): up to two-fold | increase of cell sensitivity towards osimertinib upon HIF1A knockdown ([8]; lentiviral shRNAs against HIF1A, 100 nM osimertinib): up to 2.6 fold | drug sensitivity towards osimertinib upon HIF2A knockdown ([8]; lentiviral shRNAs against HIF2A/EPAS1, 100 nM osimertinib): did not change | decrease of total number of organoids compared with the control group [9]: two-fold
